According to the supplement of paper PMC10307832:

Key:
Assay in all cases: relative viability (nuclei count vs DMSO), 5 days (fraction); higher = more cells survive
NVP-TAE684 + OSI-027 = compound: COc1cc(N2CCC(N3CCN(C)CC3)CC2)ccc1Nc1ncc(Cl)c(Nc2ccccc2S(=O)(=O)C(C)C)n1 [NVP-TAE684] + COc1cccc2cc(-c3nc([C@H]4CC[C@H](C(=O)O)CC4)n4ncnc(N)c34)[nH]c12 [OSI-027] (partner 0.5 µM)
Outline: (§1)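 Relative viability is defined as nuclei in treated wells over nuclei in vehicle wells. Duplicate plates were run and medians reported. Lung cancer cell lines in 1536-well plates were dosed by pin tool one day after seeding, with one drug or with a fixed anchor-drug dose plus five library-drug doses (not always all listed) in √10 steps, and nuclei were counted after 5 days.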

[1] = compound: C1=CC=C2C(=C1)N=C(S2)C(C#N)C3=NC(=NC=C3)NCCC4=CN=CC=C4 + Cc1cc(Nc2cc(N3CCN(C)CC3)nc(Sc3ccc(NC(=O)C4CC4)cc3)n2)n[nH]1 [Tozasertib] (partner 0.1 µM)
Outline: as §1

Vandetanib + Decitabine = compound: COc1cc2/c(=N/c3ccc(Br)cc3F)nc[nH]c2cc1OCC1CCN(C)CC1 [Vandetanib] + Nc1ncn([C@H]2C[C@H](O)[C@@H](CO)O2)c(=O)n1 [Decitabine] (partner 2 µM)
Outline: as §1

NVP-TAE684 + Linsitinib = compound: COc1cc(N2CCC(N3CCN(C)CC3)CC2)ccc1Nc1ncc(Cl)c(Nc2ccccc2S(=O)(=O)C(C)C)n1 [NVP-TAE684] + C[C@]1(O)C[C@@H](c2nc(-c3ccc4ccc(-c5ccccc5)nc4c3)c3c(N)nccn32)C1 [Linsitinib] (partner 1 µM)
Outline: as §1

| Cell Line | relative viability (NVP-TAE684 + OSI-027; first compound 0.6325 µM) | relative viability (NVP-TAE684 + OSI-027; first compound 2 µM) | relative viability ([1]; first compound 0.005 µM) | relative viability ([1]; first compound 0.01581 µM) | relative viability ([1]; first compound 0.05 µM) | relative viability ([1]; first compound 0.1581 µM) | relative viability ([1]; first compound 0.5 µM) | relative viability (Vandetanib + Decitabine; first compound 0.02 µM) | relative viability (Vandetanib + Decitabine; first compound 0.06325 µM) | relative viability (Vandetanib + Decitabine; first compound 0.2 µM) | relative viability (Vandetanib + Decitabine; first compound 0.6325 µM) | relative viability (Vandetanib + Decitabine; first compound 2 µM) | relative viability (NVP-TAE684 + OSI-027; first compound 0.2 µM) | relative viability (NVP-TAE684 + Linsitinib; first compound 0.2 µM) | relative viability (NVP-TAE684 + Linsitinib; first compound 0.6325 µM) | relative viability (NVP-TAE684 + Linsitinib; first compound 2 µM) |
| --- | --- | --- | --- | --- | --- | --- | --- | --- | --- | --- | --- | --- | --- | --- | --- | --- |
| NCI-H522 | 0.702 | 0.554 | 0.458 | 0.553 | 0.501 | 0.573 | 0.537 | 0.619 | 0.691 | 0.717 | 0.768 | 0.646 |  |  |  |  |
| RERF-LC-KJ | 0.448 | 0.306 | 0.535 | 0.549 | 0.507 | 0.472 | 0.413 | 0.711 | 0.74 | 0.737 | 0.665 | 0.555 | 0.514 | 0.921 | 1.01 |  |
| A-427 | 0.396 | 0.285 | 0.203 | 0.181 | 0.222 | 0.227 | 0.203 | 0.58 | 0.59 | 0.541 | 0.517 | 0.574 | 0.548 | 1.22 |  | 1.07 |
| EKVX | 0.698 | 0.521 | 0.481 | 0.468 | 0.429 | 0.498 | 0.336 | 0.378 | 0.322 | 0.345 | 0.279 | 0.212 | 0.577 | 0.896 | 0.897 | 0.709 |
| NCI-H460 | 0.607 | 0.162 | 0.396 | 0.282 | 0.302 | 0.204 | 0.0413 | 0.459 | 0.446 | 0.338 | 0.532 | 0.49 | 0.811 | 0.732 | 0.911 | 0.298 |
| HARA | 0.351 | 0.281 | 0.098 | 0.0872 | 0.114 | 0.0978 | 0.118 | 0.466 | 0.653 | 0.515 | 0.559 | 0.578 | 0.538 | 0.985 | 0.929 | 0.474 |
| NCI-H1944 | 0.36 | 0.278 | 0.275 | 0.255 | 0.25 | 0.269 | 0.24 | 0.411 | 0.489 | 0.551 | 0.463 | 0.447 | 0.428 | 1.16 | 1.17 | 1.3 |
| BEN | 0.311 | 0.265 | 0.261 | 0.49 | 0.457 | 0.638 | 0.435 | 0.651 | 0.7 | 0.625 | 0.725 | 0.446 | 0.27 | 0.804 | 0.904 | 0.848 |
| NCI-H1623 | 0.402 | 0.34 | 0.55 | 0.398 | 0.395 | 0.462 | 0.351 |  |  |  |  |  | 0.337 |  |  |  |
| IA-LM |  |  |  |  |  |  |  |  |  |  |  |  |  | 0.386 | 0.503 | 0.627 |
| NCI-H1792 | 0.731 | 0.818 |  |  |  |  |  | 0.487 | 0.469 | 0.698 | 0.53 | 0.444 | 0.779 | 0.451 | 0.509 | 0.504 |
| NCI-H1299 |  |  |  |  |  |  |  |  |  |  |  |  |  | 0.915 | 1.02 | 0.909 |
| NCI-H1703 |  |  |  |  |  |  |  |  |  |  |  |  |  | 0.862 | 0.932 | 0.588 |
| NCI-H1650 | 0.437 | 0.217 | 0.289 | 0.405 | 0.391 | 0.377 | 0.315 | 0.361 | 0.451 | 0.413 | 0.502 | 0.403 | 0.374 |  |  |  |
| Calu-6 |  |  |  |  |  |  |  |  |  |  |  |  |  | 0.805 | 0.935 | 0.634 |
| NCI-H2170 | 0.579 | 0.63 | 0.513 | 0.759 | 0.661 | 0.81 | 0.636 | 0.44 | 0.478 | 0.472 | 0.458 | 0.455 | 0.703 |  |  |  |
| NCI-H2228 | 0.137 | 0.16 | 0.251 | 0.232 | 0.211 | 0.187 | 0.226 |  |  |  |  |  | 0.247 | 0.458 | 0.321 | 0.285 |
| ChaGo-K-1 | 0.546 | 0.416 |  | 0.209 | 0.223 | 0.251 | 0.255 | 0.518 | 0.519 | 0.287 | 0.496 | 0.523 | 0.589 |  |  |  |
| NCI-H2342 | 0.585 | 0.34 | 0.403 | 0.522 | 0.499 | 0.47 | 0.456 | 0.727 | 0.75 | 0.8 | 0.699 | 0.723 |  |  |  |  |
| NCI-H1563 | 0.678 | 0.596 |  |  |  |  |  |  |  |  |  |  | 0.736 | 1.07 | 1.25 |  |
| EBC-1 |  |  |  |  |  |  |  |  |  |  |  |  |  | 0.784 | 0.785 | 0.745 |
| SW 900 | 0.425 | 0.703 | 0.452 | 0.489 | 0.5 | 0.489 | 0.362 | 0.406 | 0.39 |  | 0.48 | 0.437 | 0.536 |  |  |  |
| A549 |  |  |  |  |  |  |  | 0.189 | 0.267 | 0.281 | 0.252 | 0.34 |  | 0.539 | 0.603 | 0.532 |
| NCI-H1648 | 0.226 | 0.216 | 0.394 | 0.416 | 0.553 | 0.424 | 0.484 | 0.55 | 0.52 | 0.479 | 0.49 | 0.418 | 0.255 |  |  |  |
| CAL-12T | 0.372 | 0.158 | 0.222 | 0.336 | 0.275 | 0.388 | 0.197 |  |  |  |  |  | 0.538 | 0.726 | 0.767 | 0.541 |
